Common to all, as to type: in vivo
Test [1] has as its system redroot pigweed (Amaranthus retroflexus). Kind of test: Test G Pre-Emergence Protocol. The following applies: Amaranthus retroflexus, pre-emergence, 312 h, evaluated after 13 days; for pest or weed control at 62.5 g/ha: 62.5 g ai/ha, 100=total damage to plant, 0=no damage to plant, read-out: plant damage rating, Pigweed, Redroot; for pest or weed control at 250 g/ha: 250 g ai/ha. The method in brief:
(§1)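 Scores are visual damage ratings from 0 (no damage) to 100 (total plant kill), taken 13 days after treatment. Compound was sprayed one day post-sowing at 15.625, 62.5 or 250 g/ha in 50:50 acetone/water with 0.5% Tween 20.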

Test [2] concerns velvetleaf (Abutilon theophrasti). Description: Test G Pre-Emergence Protocol. The following applies: Abutilon theophrasti, pre-emergence, 312 h, evaluated after 13 days; for pest or weed control at 15.625 g/ha: 15.625 g ai/ha; for pest or weed control at 15.625 g/ha / pest or weed control at 250 g/ha: read-out: Velvetleaf damage rating (100=total damage to plant; 0=no damage to plant); for pest or weed control at 62.5 g/ha: 62.5 g ai/ha, 100=total damage to plant, 0=no damage to plant, read-out: plant damage rating, Velvetleaf; for pest or weed control at 250 g/ha: 250 g ai/ha. The method in brief: as §1

Test [3] deals with giant foxtail (Setaria faberi). Kind of test: Test G Pre-Emergence Protocol. The following applies: Setaria faberi, pre-emergence, 312 h, evaluated after 13 days; for pest or weed control at 15.625 g/ha: 15.625 g ai/ha; for pest or weed control at 15.625 g/ha / pest or weed control at 250 g/ha: read-out: Foxtail, Giant damage rating (100=total damage to plant; 0=no damage to plant); for pest or weed control at 62.5 g/ha: 62.5 g ai/ha, 100=total damage to plant, 0=no damage to plant, read-out: plant damage rating, Foxtail, Giant; for pest or weed control at 250 g/ha: 250 g ai/ha. In outline:
as §1

Test [4] has as its system corn (Zea mays). Kind of test: Test G Pre-Emergence Protocol. The following applies: Zea mays, pre-emergence, 312 h, evaluated after 13 days; for plant injury at 15.625 g/ha: 15.625 g ai/ha; for plant injury at 15.625 g/ha / plant injury at 250 g/ha: read-out: Corn damage rating (100=total damage to plant; 0=no damage to plant); for plant injury at 62.5 g/ha: 62.5 g ai/ha, 100=total damage to plant, 0=no damage to plant, read-out: plant damage rating, Corn; for plant injury at 250 g/ha: 250 g ai/ha. In outline: as §1

Test [5] concerns barnyardgrass (Echinochloa crus-galli). Description: Test G Pre-Emergence Protocol. The following applies: Echinochloa crus-galli, pre-emergence, 312 h, evaluated after 13 days; for pest or weed control at 15.625 g/ha: 15.625 g ai/ha, read-out: Barnyard grass damage rating (100=total damage to plant; 0=no damage to plant); for pest or weed control at 62.5 g/ha: 62.5 g ai/ha, 100=total damage to plant, 0=no damage to plant, read-out: plant damage rating, Barnyardgrass; for pest or weed control at 250 g/ha: 250 g ai/ha, read-out: Barnyardgrass damage rating (100=total damage to plant; 0=no damage to plant). In outline: as §1

In test [6] the test system is ivy-leaved morning glory (Ipomoea hederacea). Kind of test: Test G Pre-Emergence Protocol. The following applies: Ipomoea, pre-emergence, 312 h, evaluated after 13 days; for pest or weed control at 15.625 g/ha: 15.625 g ai/ha, read-out: Morning-glory, Ivy-leaved damage rating (100=total damage to plant; 0=no damage to plant); for pest or weed control at 62.5 g/ha: 62.5 g ai/ha, 100=total damage to plant, 0=no damage to plant, read-out: plant damage rating, Morningglory, Ivy-leaved; for pest or weed control at 250 g/ha: 250 g ai/ha, read-out: Morningglory, Ivy-leaved damage rating (100=total damage to plant; 0=no damage to plant). The method in brief:
as §1

Test [7] has as its system giant foxtail (Setaria faberii). Description: Test A preemergence. The following applies: Setaria faberi, pre-emergence, 240 h, read-out: Plant response rating, Foxtail, Giant; for pest or weed control at 125 g/ha: 125 g ai/ha, visual rating after approx. 10 d, 0 to 100 scale where 0 is no effect and 100 is complete control; for pest or weed control at 31 g/ha: Preemergence, 31 g ai/ha, 0 to 100 scale (0 no effect, 100 complete control). The method in brief:
(§2)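 Visual injury scores from 0, no effect, to 100, complete control, were assigned versus untreated controls roughly 10 d after treatment in the greenhouse. Test chemicals, formulated with surfactant in a non-phytotoxic solvent, were applied to planted seeds as a preemergence soil spray or postemergence to one- to two-leaf plants 2 to 10 cm tall, in loam–sand soil.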

Test [8] concerns ragweed (common ragweed, Ambrosia elatior). Description: Test A preemergence. The following applies: Ambrosia artemisiifolia, pre-emergence, 240 h, read-out: Plant response rating, Ragweed; for pest or weed control at 125 g/ha: 125 g ai/ha, visual rating after approx. 10 d, 0 to 100 scale where 0 is no effect and 100 is complete control; for pest or weed control at 31 g/ha: Preemergence, 31 g ai/ha, 0 to 100 scale (0 no effect, 100 complete control). In outline:
as §2

Test [9] relates to Kochia (Kochia scoparia). Description: Test A preemergence. The following applies: Bassia scoparia, pre-emergence, 240 h, read-out: Plant response rating, Kochia; for pest or weed control at 125 g/ha: 125 g ai/ha, visual rating after approx. 10 d, 0 to 100 scale where 0 is no effect and 100 is complete control; for pest or weed control at 31 g/ha: Preemergence, 31 g ai/ha, 0 to 100 scale (0 no effect, 100 complete control). The method in brief:
as §2

Test [10] has as its system barnyardgrass (Echinochloa crus-galli). Description: Test A preemergence. The following applies: Echinochloa crus-galli, pre-emergence, 240 h, read-out: Plant response rating, Barnyardgrass; for pest or weed control at 125 g/ha: 125 g ai/ha, visual rating after approx. 10 d, 0 to 100 scale where 0 is no effect and 100 is complete control; for pest or weed control at 31 g/ha: Preemergence, 31 g ai/ha, 0 to 100 scale (0 no effect, 100 complete control). The method in brief: as §2

Test [11] deals with pigweed (Amaranthus retroflexus). Description: Test A preemergence. The following applies: Amaranthus retroflexus, pre-emergence, 240 h, read-out: Plant response rating, Pigweed; for pest or weed control at 125 g/ha: 125 g ai/ha, visual rating after approx. 10 d, 0 to 100 scale where 0 is no effect and 100 is complete control; for pest or weed control at 31 g/ha: Preemergence, 31 g ai/ha, 0 to 100 scale (0 no effect, 100 complete control).

Test [12] concerns ryegrass, Italian (Italian ryegrass, Lolium multiflorum). Description: Test A preemergence. The following applies: Lolium multiflorum, pre-emergence, 240 h, read-out: Plant response rating, Ryegrass, Italian; for pest or weed control at 125 g/ha: 125 g ai/ha, visual rating after approx. 10 d, 0 to 100 scale where 0 is no effect and 100 is complete control; for pest or weed control at 31 g/ha: Preemergence, 31 g ai/ha, 0 to 100 scale (0 no effect, 100 complete control). In outline:
as §2

Where [13] appears, read: read-out: Pigweed, Redroot damage rating (100=total damage to plant; 0=no damage to plant).
[14] abbreviates: 500 g ai/ha, preemergence, 0 to 100 scale, 0 = no effect, 100 = complete control.

Molecules are shown by their SMILES.

Turning to `CN1C[C@@H](c2ccc(C(F)(F)F)cc2)[C@H](C(=O)Nc2nc[nH]n2)C1=O` (racemic) [Compound 1534], the pest or weed control at 15.625 g/ha amounted to 0% in [1] (15.625 g ai/ha, read-out: Pigweed, Redroot damage rating (100=total damage to plant; 0=no damage to plant)); 0% in test [2]; 0% in test [3]; 0% in [5]; 0% in test [6]. Also, the pest or weed control at 62.5 g/ha in test [1], in test [2], in [3], in [5] and in [6] was 0% each time. The pest or weed control at 250 g/ha in test [1] (setting [13]), in [2], in [3], in test [5] and in [6] was 0% throughout. The plant injury at 15.625 g/ha in test [4] is 0%. For the same compound, the plant injury at 62.5 g/ha in [4] came to 0%. Also, in test [4], the plant injury at 250 g/ha came to 0%.
Take `CN1C[C@@H](c2ccc(C(F)(F)F)cc2)[C@H](C(=O)Nc2cc(C(F)(F)F)nn2C)C1=O` (racemic) [Compound 1510]: the pest or weed control at 62.5 g/ha in test [1], in test [2], in test [3], in test [5] and in test [6] was 0% throughout. For the same compound, the pest or weed control at 250 g/ha in test [1] (setting [13]), in test [2], in test [3], in test [5] and in test [6] was 0% in each case. The pest or weed control at 15.625 g/ha in [2], in [3], in [5] and in test [6] was 0% throughout. In addition, the plant injury at 15.625 g/ha in test [4] turned out to be 0%. Further, in [4], the plant injury at 62.5 g/ha worked out at 0%. Also, in test [4], the plant injury at 250 g/ha turned out to be 0%.
For the compound `CN1CC[C@H](c2ccc3c(c2)OC(F)(F)O3)[C@@H](C(=O)Nc2cccc(F)c2F)C1=O` [Compound 812], the pest or weed control at 125 g/ha in test [7] (preemergence) is 90%; in test [8] (preemergence), 0%; in test [9] (preemergence), 0%; in [10] (preemergence), 90%; in [11] (preemergence) it was 0%; in [12] (preemergence), 20%. For the same compound, the pest or weed control at 31 g/ha in test [7] was 80%; in test [8] it was 0%; in test [9], 0%; in [10] it was 70%; in test [11], 0%; in [12], 0%.
As for `Cc1ccc([C@H]2CN(C)C(=O)[C@@H]2C(=O)Nc2ccccc2S(C)(=O)=O)cc1C` [Compound 734], the pest or weed control at 125 g/ha came out at 90% in test [7] (preemergence); 20% in [8] (preemergence); 20% in test [9] (preemergence); 90% in test [10] (preemergence); 20% in test [11] (preemergence); 40% in test [12] (preemergence). The pest or weed control at 500 g/ha in test [7] (setting [14]) came out at 100%; in test [8] (setting [14]), 50%; in test [9] (setting [14]), 90%; in [10] (setting [14]), 100%; in test [11] (setting [14]), 80%; in test [12] (setting [14]), 90%.
As for `CN1CC[C@H](c2ccc3c(c2)OC(F)(F)O3)[C@@H](C(=O)Nc2ccc(F)c(F)c2F)C1=O` [Compound 813], the pest or weed control at 125 g/ha in test [7] (preemergence) turned out to be 90%; in test [8] (preemergence), 0%; in test [9] (preemergence) it was 0%; in test [10] (preemergence) it was 80%; in test [11] (preemergence), 0%; in test [12] (preemergence) it was 20%. Also, the pest or weed control at 31 g/ha in [7] turned out to be 70%; in test [8] it was 0%; in test [9], 0%; in test [10], 20%; in [11], 0%; in [12] it was 0%.

(Values after patent US12077503B2, “Substituted cyclic amides and their use as herbicides” (FMC CORPORATION, priority 2015, dated 2024).)
